Experimental data: patent US20170227545A1, “REACTIVITY-BASED SCREENING FOR NATURAL PRODUCT DISCOVERY” (THE BOARD OF TRUSTEES OF THE UNIVERSITY OF ILLINOIS, priority 2014, published 2017)
In brackets after ≈: the same amount, converted by molar mass. Like-named read-outs stand apart in the source and are kept apart here.

Legend:
Assay type in all cases: cell-based
Talaromyces stipitatus = assay: Antifungal activity, microbroth dilution MIC
[1] = tested on: Enterococcus faecalis U503 (vancomycin-resistant); assay: Antibiotic activity, microbroth dilution MIC
[2] = tested on: Gram-negative (Proteobacteria) organisms; settings: all tested Gram-negatives, result in words
[3] = tested on: Pseudomonas putida KT2440; assay: Antibiotic activity, microbroth dilution MIC
Fusarium virguliforme = assay: Antifungal activity, microbroth dilution MIC
Aspergillus niger = assay: Antifungal activity, microbroth dilution MIC
E. coli MC4100 = assay: Antibiotic activity, microbroth dilution MIC; settings: 37° C. 12 h
fungal strains = assay: Growth inhibition, panel of fungal strains; settings: result in words
[4] = tested on: Neisseria sicca ATCC 29256; assay: Antibiotic activity, microbroth dilution MIC
[5] = tested on: Gram-positive (Firmicutes) bacteria; settings: several Gram-positive bacteria, result in words
[6] = tested on: Staphylococcus aureus USA300 (methicillin-resistant); assay: Antibiotic activity, microbroth dilution MIC
Saccharomyces cerevisiae = assay: Antifungal activity, microbroth dilution MIC
[7] = tested on: Bacillus anthracis strain Sterne; assay: microbe, parasite or virus in culture
[8] = tested on: Listeria monocytogenes strain 4b F2365; assay: Antibiotic activity, microbroth dilution MIC
[9] = tested on: Bacillus subtilis strain 168; assay: Antibiotic activity, microbroth dilution MIC
[10] = microbroth dilution, 30° C. 36 h
[11] = microbroth dilution, 37° C. 12 h

C=C1NC(=O)CNC(=O)[C@H](CCCCN)NC(=O)[C@@]2(C)NC(=O)/C(=C/C)NC(=O)[C@@H]3CSC(=N3)[C@H](CC(N)=O)NC(=O)c3ccc(nc3[C@@H](C)NC(=O)[C@@H]3CCCN3C1=O)-c1nc(cs1)C1=N[C@@H](CS1)C(=O)NC(=C)c1nc(cs1)-c1nc(cs1)C1=N[C@H](CS1)C(=O)N[C@H](C(=O)O)CS2 [cyclothiazomycin C]
MIC (Talaromyces stipitatus; 36 h): > 64 µg/mL | MIC ([1]; 12 h): 32 to 64 µg/mL (≈ 21.5 to 43 µM) | activity against Gram-negative (Proteobacteria) organisms [2]: inactive | MIC ([3]; KT2440, 37° C. 12 h, read-out: MIC): > 64 µg/mL | MIC (Fusarium virguliforme; 60 h): > 64 µg/mL | MIC (Aspergillus niger; 36 h): > 64 µg/mL | MIC (E. coli MC4100; MC4100, Escherichia coli, read-out: MIC): > 64 µg/mL | growth inhibitory action toward fungal strains (fungal strains): none was observed | MIC ([4]; ATCC29256, 37° C. 12 h, read-out: MIC): > 64 µg/mL | growth inhibitory action toward Gram-positive (Firmicutes) bacteria [5]: exhibited growth inhibitory action | MIC ([6]; USA300, 12 h): 16 µg/mL (≈ 10.8 µM) | MIC (Saccharomyces cerevisiae; 36 h): > 64 µg/mL | MIC ([7]; 12 h): 1 µg/mL (≈ 0.673 µM) | MIC ([8]; 4BF2365, 37° C. 12 h, read-out: MIC): 16 µg/mL (≈ 10.8 µM) | MIC ([9]; 168, 37° C. 12 h, read-out: MIC): 4 µg/mL (≈ 2.69 µM)

cyclothiazomycin B [reference compound]
MIC (Talaromyces stipitatus; [10]): 64 µg/mL | MIC [1, 11]: 32 µg/mL | activity against Gram-negative (Proteobacteria) organisms [2]: little to no activity | MIC ([3]; 37° C. 12 h): >64 µg/mL | MIC (Fusarium virguliforme; microbroth dilution, 30° C. 60 h): 64 µg/mL | MIC (Aspergillus niger; [10]): >64 µg/mL | MIC (E. coli MC4100; Escherichia coli): 64 µg/mL | growth inhibitory action toward fungal strains (fungal strains): little to no activity | MIC ([4]; 37° C. 12 h): >64 µg/mL | MIC [6, 11]: 4 µg/mL | MIC (Saccharomyces cerevisiae; [10]): 64 µg/mL | MIC [7, 11]: 1 µg/mL | MIC ([8]; 37° C. 12 h): 8 µg/mL | MIC ([9]; 37° C. 12 h): 2 µg/mL
